Entries after “also recorded” stand apart in the source; their conditions may differ.
Assay: Phase I dose escalation: safety and tolerability (DLT, MTD, adverse events, NCI-CTCAE 4.03)

Structure (SMILES): CNC(=O)c1cccc(-c2ccc3c(N4C5CCC4COC5)nc(N4CCOC[C@@H]4C)nc3n2)c1 [LXI-15029]
- ≥ 10% TRAE: Diarrhea (80 mg BID (n = 4)): 2 (50.0) n (%)
- ≥ 10% TRAE: ECG QT prolonged (80 mg BID (n = 4)): 1 (25.0) n (%)
- ≥ 10% TRAE: Fatigue (80 mg BID (n = 4)): 2 (50.0) n (%)
- ≥ 10% TRAE: GGT increased (80 mg BID (n = 4)): 0 n (%)
- ≥ 10% TRAE: Hypercholesterolemia (80 mg BID (n = 4)): 0 n (%)
- ≥ 10% TRAE: Hypertriglyceridemia (80 mg BID (n = 4)): 0 n (%)
- ≥ 10% TRAE: LDL increased (80 mg BID (n = 4)): 0 n (%)
- ≥ 10% TRAE: Leukocytopenia (80 mg BID (n = 4)): 2 (50.0) n (%)
- ≥ 10% TRAE: Neutropenia (80 mg BID (n = 4)): 0 n (%)
- ≥ 10% TRAE: Sinus bradycardia (80 mg BID (n = 4)): 1 (25.0) n (%)
- Patients with any TEAE (110 mg BID (n = 3)): 3 (100.0) n (%)
- Patients with any TEAE, maximum CTCAE Grade 1 (110 mg BID (n = 3)): 3 (100.0) n (%)
- Patients with any TEAE, maximum CTCAE Grade 2 (110 mg BID (n = 3)): 0 n (%)
- Patients with any TEAE, maximum CTCAE Grade 3 (110 mg BID (n = 3)): 0 n (%)
- ≥ 10% TRAE: ALT increased (110 mg BID (n = 3)): 1 (33.3) n (%)
- ≥ 10% TRAE: AST increased (110 mg BID (n = 3)): 2 (66.7) n (%)
- ≥ 10% TRAE: Decreased appetite (110 mg BID (n = 3)): 0 n (%)
- ≥ 10% TRAE: Diarrhea (110 mg BID (n = 3)): 0 n (%)
- ≥ 10% TRAE: ECG QT prolonged (110 mg BID (n = 3)): 2 (66.7) n (%)
- ≥ 10% TRAE: Fatigue (110 mg BID (n = 3)): 0 n (%)
- ≥ 10% TRAE: GGT increased (110 mg BID (n = 3)): 0 n (%)
- ≥ 10% TRAE: Hypercholesterolemia (110 mg BID (n = 3)): 0 n (%)
- ≥ 10% TRAE: Hypertriglyceridemia (110 mg BID (n = 3)): 0 n (%)
- ≥ 10% TRAE: LDL increased (110 mg BID (n = 3)): 0 n (%)
- ≥ 10% TRAE: Leukocytopenia (110 mg BID (n = 3)): 1 (33.3) n (%)
- ≥ 10% TRAE: Neutropenia (110 mg BID (n = 3)): 0 n (%)
- ≥ 10% TRAE: Sinus bradycardia (110 mg BID (n = 3)): 0 n (%)
- Patients with any TEAE (150 mg BID (n = 4)): 4 (100.0) n (%)
- Patients with any TEAE, maximum CTCAE Grade 1 (150 mg BID (n = 4)): 2 (50.0) n (%)
- Patients with any TEAE, maximum CTCAE Grade 2 (150 mg BID (n = 4)): 1 (25.0) n (%)
- Patients with any TEAE, maximum CTCAE Grade 3 (150 mg BID (n = 4)): 1 (25.0) n (%)
- ≥ 10% TRAE: ALT increased (150 mg BID (n = 4)): 2 (50.0) n (%)
- ≥ 10% TRAE: AST increased (150 mg BID (n = 4)): 2 (50.0) n (%)
- ≥ 10% TRAE: Decreased appetite (150 mg BID (n = 4)): 1 (25.0) n (%)
- ≥ 10% TRAE: Diarrhea (150 mg BID (n = 4)): 0 n (%)
- ≥ 10% TRAE: ECG QT prolonged (150 mg BID (n = 4)): 0 n (%)
- ≥ 10% TRAE: Fatigue (150 mg BID (n = 4)): 0 n (%)
- ≥ 10% TRAE: GGT increased (150 mg BID (n = 4)): 2 (50.0) n (%)
- ≥ 10% TRAE: Hypercholesterolemia (150 mg BID (n = 4)): 0 n (%)
- ≥ 10% TRAE: Hypertriglyceridemia (150 mg BID (n = 4)): 1 (25.0) n (%)
- ≥ 10% TRAE: LDL increased (150 mg BID (n = 4)): 0 n (%)
- ≥ 10% TRAE: Leukocytopenia (150 mg BID (n = 4)): 3 (75.0) n (%)
- ≥ 10% TRAE: Neutropenia (150 mg BID (n = 4)): 3 (75.0) n (%)
- ≥ 10% TRAE: Sinus bradycardia (150 mg BID (n = 4)): 1 (25.0) n (%)
- dose-limiting toxicity (DLT) (150 mg BID group, one participant, within the DLT observation window): grade 3 increased alanine aminotransferase (ALT); also recorded: Only one DLT was observed
- Patients with any TEAE, maximum CTCAE Grade 1 (Total (n = 24)): 15 (62.5) n (%)
- Patients with any TEAE, maximum CTCAE Grade 2 (Total (n = 24)): 6 (25.0) n (%)
- Patients with any TEAE, maximum CTCAE Grade 3 (Total (n = 24)): 1 (4.2) n (%)
- ≥ 10% TRAE: ALT increased (Total (n = 24)): 5 (20.8) n (%)
- ≥ 10% TRAE: AST increased (Total (n = 24)): 5 (20.8) n (%)
- ≥ 10% TRAE: Decreased appetite (Total (n = 24)): 3 (12.5) n (%)
- ≥ 10% TRAE: Diarrhea (Total (n = 24)): 4 (16.7) n (%)
- ≥ 10% TRAE: ECG QT prolonged (Total (n = 24)): 5 (20.8) n (%)
- ≥ 10% TRAE: Fatigue (Total (n = 24)): 4 (16.7) n (%)
- ≥ 10% TRAE: GGT increased (Total (n = 24)): 4 (16.7) n (%)
- ≥ 10% TRAE: Hypercholesterolemia (Total (n = 24)): 3 (12.5) n (%)
- ≥ 10% TRAE: Hypertriglyceridemia (Total (n = 24)): 5 (20.8) n (%)
- ≥ 10% TRAE: LDL increased (Total (n = 24)): 3 (12.5) n (%)
- ≥ 10% TRAE: Leukocytopenia (Total (n = 24)): 10 (41.7) n (%)
- ≥ 10% TRAE: Neutropenia (Total (n = 24)): 4 (16.7) n (%)
- ≥ 10% TRAE: Sinus bradycardia (Total (n = 24)): 4 (16.7) n (%)
- TRAEs of CTCAE grade 1 (all doses): 62.5%
- TRAEs of CTCAE grade 2 (all doses): 25%
- other serious treatment-related AEs (besides the DLT) (all doses): No other serious treatment-related AEs were reported
- mean ALT change from baseline (all doses except the 10-mg and 80-mg doses): increased slightly
- mean AST change from baseline (all doses except the 10-mg, 60-mg, and 80-mg doses): increased slightly
- treatment-related AE: hypertriglyceridemia (all doses, 24 patients): 20.8%
- treatment-related AE: increased alanine aminotransferase (all doses, 24 patients): 20.8%
- treatment-related AE: increased aspartate aminotransferase (all doses, 24 patients): 20.8%
- treatment-related AE: leukocytopenia (all doses, 24 patients): 41.7%
- treatment-related AE: prolonged electrocardiogram QT interval (all doses, 24 patients): 20.8%
- deaths within 28 days of the last dose (attributed to disease progression unrelated to treatment): One
- association of AE rates, laboratory parameters, vital signs, ECG, other safety data with dose levels (descriptive results): No apparent associations
- participants with TEAEs leading to LXI-15029 discontinuation (of 24 participants): Three
- participants with a TRAE leading to LXI-15029 discontinuation (of 24 participants): one
- participants with a serious TRAE (of 24 participants): one
- participants with serious TEAEs (of 24 participants): Five
- participants with treatment-emergent AEs (TEAEs) (of 24 participants): 24 participants
- participants with treatment-related AEs (TRAEs) (of 24 participants): 22 participants
- patients with TEAEs occurring within 30 days after LXI-15029 discontinuation (of 24 participants): Eleven
- treatment discontinuation because of AEs (of 24 participants): 2 (8.3%) n (%)
- treatment discontinuation because of DLT (of 24 participants): 1 (4.2%) n (%)
- tolerability (oral BID, 10 to 150 mg): well tolerated at all doses; also recorded: well tolerated at all dose levels; also recorded: well tolerable
- maximum tolerated dose (MTD) (oral monotherapy, Chinese patients with advanced solid tumors): 110 mg BID

— publication PMC10702058, “Phase I dose escalation study and pilot efficacy analysis of LXI-15029, a novel mTOR dual inhibitor, in Chinese subjects with advanced malignant solid tumors” (BMC Cancer, 2023)
